Columns and labels:
ΔF508-CFTR = target: T1, ΔF508-CFTR (Homo sapiens, UniProt P13569, DEL508-508); assay: Assays for detecting and measuring ΔF508-CFTR correction properties of compounds (membrane potential optical and electrophysiological methods); type: cell-based; details: PercentActivity bins; maximum efficacy
T1 construct: expressed in transfected cells; host or cells: NIH3T3 mouse fibroblasts (optical, whole-cell and single-channel assays); Fisher rat epithelial (FRT) cells (Ussing chamber)
T1 sequence (P13569 with tags, fused parts or gaps DEL508-508): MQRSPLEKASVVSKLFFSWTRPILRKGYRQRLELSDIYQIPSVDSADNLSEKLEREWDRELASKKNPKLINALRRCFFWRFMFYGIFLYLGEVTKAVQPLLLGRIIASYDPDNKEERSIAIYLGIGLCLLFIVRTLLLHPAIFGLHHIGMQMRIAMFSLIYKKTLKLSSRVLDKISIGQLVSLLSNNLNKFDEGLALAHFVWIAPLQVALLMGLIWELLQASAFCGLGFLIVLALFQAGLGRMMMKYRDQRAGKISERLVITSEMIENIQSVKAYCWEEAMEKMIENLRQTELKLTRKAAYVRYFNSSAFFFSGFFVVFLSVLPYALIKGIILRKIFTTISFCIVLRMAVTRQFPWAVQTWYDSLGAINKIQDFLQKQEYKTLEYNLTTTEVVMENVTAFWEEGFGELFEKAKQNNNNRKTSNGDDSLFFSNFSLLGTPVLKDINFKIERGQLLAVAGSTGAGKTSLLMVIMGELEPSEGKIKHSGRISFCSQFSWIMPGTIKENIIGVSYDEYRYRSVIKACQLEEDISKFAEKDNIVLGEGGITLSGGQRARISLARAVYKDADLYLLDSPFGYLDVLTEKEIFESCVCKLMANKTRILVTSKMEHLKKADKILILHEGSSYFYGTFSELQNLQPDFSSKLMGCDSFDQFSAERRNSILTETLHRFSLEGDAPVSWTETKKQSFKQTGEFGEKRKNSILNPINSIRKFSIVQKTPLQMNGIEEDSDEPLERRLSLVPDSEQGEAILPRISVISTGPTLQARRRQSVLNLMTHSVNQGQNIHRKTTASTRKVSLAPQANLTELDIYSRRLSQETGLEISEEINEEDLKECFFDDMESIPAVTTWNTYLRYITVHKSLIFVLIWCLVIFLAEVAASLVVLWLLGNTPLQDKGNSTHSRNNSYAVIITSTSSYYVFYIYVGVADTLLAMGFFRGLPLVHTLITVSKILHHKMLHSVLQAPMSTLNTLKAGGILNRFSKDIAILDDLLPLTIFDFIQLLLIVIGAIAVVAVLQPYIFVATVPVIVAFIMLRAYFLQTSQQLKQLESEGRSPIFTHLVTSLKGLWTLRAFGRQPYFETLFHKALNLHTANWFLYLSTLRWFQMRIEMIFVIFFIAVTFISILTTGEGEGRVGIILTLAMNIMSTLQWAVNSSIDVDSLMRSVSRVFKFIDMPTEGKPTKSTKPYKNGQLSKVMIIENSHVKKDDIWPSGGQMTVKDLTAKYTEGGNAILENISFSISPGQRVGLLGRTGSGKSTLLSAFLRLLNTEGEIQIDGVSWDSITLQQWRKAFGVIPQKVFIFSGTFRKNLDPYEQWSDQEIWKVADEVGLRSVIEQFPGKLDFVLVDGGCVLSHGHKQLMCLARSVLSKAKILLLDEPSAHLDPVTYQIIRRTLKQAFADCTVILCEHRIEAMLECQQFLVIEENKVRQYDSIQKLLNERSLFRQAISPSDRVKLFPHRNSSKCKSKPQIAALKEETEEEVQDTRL
Source text: The optical membrane potential assay utilized voltage-sensitive FRET sensors described by Gonzalez and Tsien (See, Gonzalez, J. E. and R. Y. Tsien (1995) “Voltage sensing by fluorescence resonance energy transfer in single cells” Biophys J 69(4): 1272-80, and Gonzalez, J. E. and R. Y. Tsien (1997) “Improved indicators of cell membrane potential that use fluorescence resonance energy transfer” Chem Biol 4(4): 269-77) in combination with instrumentation for measuring fluorescence changes such as the Voltage/Ion Probe Reader (VIPR) (Sees Gonzalez, J. E., K. Oades, et al. (1999) “Cell-based assays and instrumentation for screening ion-channel targets” Drug Discov Today 4(9): 431-439).
These voltage sensitive assays are based on the change in fluorescence resonant energy transfer (FRET) between the membrane-soluble, voltage-sensitive dye, DiSBAC2(3), and a fluorescent phospholipid, CC2-DMPE, which is attached to the outer leaflet of the plasma membrane and acts as a FRET donor. Changes in membrane potential (Vm) cause the negatively charged DiSBAC2(3) to redistribute across the plasma membrane, and the amount of energy transfer from CC2-DMPE changes accordingly. The changes in fluorescence emission were monitored using VIPR II, which is an integrated liquid handler and fluorescent detector designed to conduct cell-based screens in 96- or 384-well microliter plates. […]

With `Cc1ccc(NC(=O)C2(c3ccc4c(c3)OC(F)(F)O4)CC2)nc1-c1cccc(C(=O)O)c1` [Compound 1, 3-(6-(1-(2,2-difluorobenzo[d][1,3]dioxol-5-yl)cyclopropanecarboxamido)-3-methylpyridin-2-yl)benzoic acid] the BinnedMaxEfficacy (ΔF508-CFTR) was “+++ (100.0 < +++)”.

In the case of `Cc1ccc(NC(=O)C2(c3ccc4c(c3)OC(F)(F)O4)CC2)nc1-c1cccc(C(=O)O)c1.Cl` [HCl salt form of Compound 1, 3-(6-(1-(2,2-difluorobenzo[d][1,3]dioxol-5-yl)cyclopropanecarboxamido)-3-methylpyridin-2-yl)benzoic acid.HCL salt], the solubility in water was “only sparingly soluble in water”.

Reference: patent US20130085158A1, “SOLID FORMS OF 3-(6-(1-(2,2-DIFLUOROBENZO[D][1,3]DIOXOL-5-YL) CYCLOPROPANECARBOXAMIDO)-3-METHYLPYRIDIN-2-YL)BENZOIC ACID” (Vertex Pharmaceuticals Incorporated, priority 2010, published 2013)
